Patent US20230416203A1, “POTENT AND SELECTIVE INHIBITORS OF THE CALCIUM-ACTIVATED POTASSIUM CHANNEL, KCA3.1, FOR USE AS PLATFORM THERAPEUTICS” (priority 2020, published 2023)
Entries after “also recorded” stand apart in the source; their conditions may differ.

Key:
[1] = Plasma protein binding assay (equilibrium dialysis), mouse plasma; type: in vitro ADME; conditions: pH 7.4
Method: Human and mouse plasma (150 μL) containing test compound (3 μM, final concentration) and sodium phosphate buffer (150 μL, 100 mM, pH 7.4) were added to the equilibrium dialysis device and equilibrated at 37° C. for 4.5 h with constant shaking. After equilibration, 10 μL of the plasma was taken out from the first half of the well and mixed with 50 μL of blank buffer, and later quenched with 200 μL of 0.05% formic acid in ACN containing 100 ng/mL of Loperamide, Phenacetin & Tolbutamide as internal standards. Similarly, 50 μL of […] was taken from the second half of the well and mixed with 10 μL of blank […] before quenching. […] All samples were centrifuged at 14,000 rpm for 5 min at 4° C. Warfarin and naltrexone were used as positive controls. Supernatant of all samples were analyzed by LC-MS/MS.

KCa2.3 = molecular target: T1, KCa2.3 (Homo sapiens, UniProt Q9UGI6); test: Potassium channels patch-clamp (QPatch), KCa2.3; type: cell-based
T1 construct: expressed in transfected cells; host or cells: COS7
T1 sequence (Q9UGI6 whole entry): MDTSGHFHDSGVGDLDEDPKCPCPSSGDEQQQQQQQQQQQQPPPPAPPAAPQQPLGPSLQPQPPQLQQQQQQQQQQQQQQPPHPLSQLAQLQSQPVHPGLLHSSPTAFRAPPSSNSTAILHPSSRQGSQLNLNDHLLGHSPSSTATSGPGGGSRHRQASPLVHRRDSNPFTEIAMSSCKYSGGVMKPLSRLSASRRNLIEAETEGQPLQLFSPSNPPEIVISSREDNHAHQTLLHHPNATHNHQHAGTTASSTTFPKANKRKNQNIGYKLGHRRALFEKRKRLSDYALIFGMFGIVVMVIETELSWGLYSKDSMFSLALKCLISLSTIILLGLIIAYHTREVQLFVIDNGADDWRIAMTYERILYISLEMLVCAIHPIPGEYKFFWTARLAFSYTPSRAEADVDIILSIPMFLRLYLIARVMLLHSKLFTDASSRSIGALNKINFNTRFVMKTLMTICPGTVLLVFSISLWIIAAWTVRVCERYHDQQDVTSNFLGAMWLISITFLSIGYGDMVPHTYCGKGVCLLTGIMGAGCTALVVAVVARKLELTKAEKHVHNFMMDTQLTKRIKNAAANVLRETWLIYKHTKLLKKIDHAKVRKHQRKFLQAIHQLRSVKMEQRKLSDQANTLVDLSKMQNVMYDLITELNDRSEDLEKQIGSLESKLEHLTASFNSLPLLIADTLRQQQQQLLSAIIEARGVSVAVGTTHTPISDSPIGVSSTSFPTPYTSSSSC
Method: The effects of Group 4 compounds on related potassium channels were evaluated by patch-clamp using a QPatch HTX automated electrophysiology platform (Sophion, Denmark). The giga-seal and whole-cell requirements for the automated electrophysiology were the following: minimum seal resistance=0.1 GO, holding potential=−80 mV, holding pressure=−20 mbar; and positioning pressure=−70 mbar.

[2] = tested on: middle cerebral artery occlusion (MCAO); test: Neurological behavioral evaluation in MCAO model (18-point system); type: in vivo, SD male rats; conditions: 48 h and day 7, rat MCAO, vs Edaravone
Source text: The animals were individually assessed based on the scoring method described in Table 18.

[3] = Plasma and brain distribution studies
Method: The dosing volume for intraperitoneal administration was 5 mL/kg. Following blood collection, the animals were sacrificed, and their abdominal vena-cava were cut open and whole body were perfused from heart using 10 mL normal saline. The brain samples were collected from a set of three mice at 0.08, 0.25, 0.5, 1, 2, 4, 8 and 10 h. After isolation, the brain samples were rinsed thrice in ice cold normal saline (for 5-10 s/rinse using ˜10-20 mL normal saline in disposable petri dish for each rinse) and dried on blotting paper. The brain samples were homogenized using ice-cold phosphate buffer saline (pH=7.4). The total homogenate volume was three times the tissue weight. All homogenates were stored below −70° C. until bioanalysis. […] Non-Compartmental-Analysis tool of Phoenix WinNonlin® (Version 8.0) was used to assess the pharmacokinetic parameters.

[4] = tested on: middle cerebral artery occlusion (MCAO); test: MCAO ischemia-reperfusion model, infarct volume (TTC staining); type: in vivo, SD male rats
[5] = tested on: Iba1+CD11b+ double positive microglia; test: Immunohistochemistry analysis on microglia and leukocytes markers in MCAO brains; type: in vivo, rats; conditions: 10 mg/kg, day 7, brain areas CA1, CPu, M1 and S1, vs MCAO or vehicle groups
Method: The animals were anaesthetized with isoflurane (RWD Life Science), perfused and fixed with 4% PFA (Sinopharm Chemical Reagent). The brain tissues were further soaked in 4% PFA […] at 4° C. overnight and then treated with a gradient of sucrose solutions (20-30%, Sinopharm Chemical Reagent) before being embedded with OCT (Leica) and frozen at −80° C. For immunofluorescence staining, the brain slices from primary somatosensory cortex (S1), primary motor cortex (M1), field CA1 of hippocampus (CA1) and caudate putamen (striatum, CPu) were heated for 30 min and then washed with 0.01 M PBS (pH=7.2-7.4, 5 min×3). After washing, the sections were blocked with 0.3% TritonX-100 (Solarbio) in 10% sheep serum (Solarbio) at RT for 1 h. Following removal of the blocking solution, the brain sections were incubated with primary antibodies Iba1 (Proteintech, Cat.10904-1-AP) and CD11b (Thermo Fisher, Cat. MA5-17857) overnight at 4° C. Following 3 washes with 0.01 M PBS (5 min each), the sections were incubated with Backlight plus secondary antibody (Abcam, Cat. ab150113; Cat.ab150080) at RT for 2 h. After 3 washes, the nuclei were stained with 4′, 6-diamidino-2-phenylindole (DAPI, Beyotime Biotech, Cat. C1006). […] The number of Iba1^+CD11b^+ double positive microglia were analyzed by Image J V1.8.0. […]

[6] = tested on: panel of other molecular targets
Method: The results are expressed as a percent inhibition of control specific binding [100-(measured specific binding/control specific binding*100)]. The IC50 values and Hill coefficients (nH) were determined by non-linear regression analysis of the competition curves generated with mean replicate values using Hill equation curve fitting performed with software developed at Cerep (Hill software) and validated by comparison with data generated by the commercial software SigmaPlot® 4.0.

[7] = male, C57BL/6, mouse, brain, ip, 50 mg/kg
[8] = male, C57BL/6, mouse, plasma, ip, 50 mg/kg

SMILES	fraction unbound at 4.5 h, 3 μM [1]	IC50 (KCa2.3) [µM]	neurological behavioral scores [2]	AUClast ([3]; Brain, IP 50 mg/kg, mice) [ng·h/g]	Cmax [3, 7] [ng/g]	MRT last [3, 7] [h]	Tmax [3, 7] [h]	half-life [3, 7] [h]	AUC(0-t) [3, 8] [ng·h/mL]	Cmax [3, 8] [ng/mL]	MRT last [3, 8] [h]	Tmax [3, 8] [h]	half-life [3, 8] [h]	reduction of infarct volume ([4]; 10 mg/kg intraperitoneal twice daily, 7 days, rat MCAO) [%]	infarct volume ([4]; rat MCAO 60 min, 7 days reperfusion, vs vehicle and Edaravone 5 mg/kg)	number of Iba1+CD11b+ double positive activated microglia [5]	selectivity for KCa3.1 over other channels and a panel of ~100 molecular targets [6] [fold]
COC(=O)C1=C(C)NC(C)=C(C(=O)OC)C1c1ccc(F)c(C(F)(F)F)c1 [Compound 101]	0.0088	8	–	–	–	–	–	–	–	–	–	–	–	–	–	–	–
COC(=O)C1=CNC=C(C(=O)OC)C1c1ccc(F)c(C(F)(F)F)c1 [Compound 103, Dimethyl 4-(4-fluoro-3-(trifluoromethyl)phenyl)-1,4-dihydropyridine-3,5-dicarboxylate]	–	–	improves neurological behavior scores more effectively than Edaravone; also recorded: improved neurological behavioral scores	88658.12	26800	2.09	0.25	1.06	20000	8540	2.02	0.25	1.63	~50	more effective than Edaravone; also recorded: effectively reduced infarct volume	significantly reduced; also recorded: effectively reduced	> 1000
